# Assay results from patent publication US20240376100A1 (Redona Therapeutics, Inc., priority 2021, published 2024).
# Counter-ions that a name gives are not always drawn.
# Biological target: PAPD5 enzyme (Homo sapiens, UniProt Q8NDF8)
# Assay: PAPD5 assay (AMP incorporation onto 3'-terminus of RNA substrate, fluorescence quench)
# Assay type: biochemical
# Conditions: PAPD5 protein 0.3 nM, ATP 50 μM, 30 minutes preincubation, room temperature; read-out: Potency PAPD5 IC50
# Method in brief: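 Enzyme at 0.3 nM with 50 μM ATP, pH 7.3 HEPES buffer, preincubated with compound 30 minutes at room temperature; 5 nM 5′-fluorescein RNA substrate and 20 nM TAMRA quench probe then added. Initial rates from kinetic fluorescein decrease over ~90 minutes; IC50 by four-parameter fit.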
# PAPD5 enzyme, sequence (Q8NDF8 whole entry): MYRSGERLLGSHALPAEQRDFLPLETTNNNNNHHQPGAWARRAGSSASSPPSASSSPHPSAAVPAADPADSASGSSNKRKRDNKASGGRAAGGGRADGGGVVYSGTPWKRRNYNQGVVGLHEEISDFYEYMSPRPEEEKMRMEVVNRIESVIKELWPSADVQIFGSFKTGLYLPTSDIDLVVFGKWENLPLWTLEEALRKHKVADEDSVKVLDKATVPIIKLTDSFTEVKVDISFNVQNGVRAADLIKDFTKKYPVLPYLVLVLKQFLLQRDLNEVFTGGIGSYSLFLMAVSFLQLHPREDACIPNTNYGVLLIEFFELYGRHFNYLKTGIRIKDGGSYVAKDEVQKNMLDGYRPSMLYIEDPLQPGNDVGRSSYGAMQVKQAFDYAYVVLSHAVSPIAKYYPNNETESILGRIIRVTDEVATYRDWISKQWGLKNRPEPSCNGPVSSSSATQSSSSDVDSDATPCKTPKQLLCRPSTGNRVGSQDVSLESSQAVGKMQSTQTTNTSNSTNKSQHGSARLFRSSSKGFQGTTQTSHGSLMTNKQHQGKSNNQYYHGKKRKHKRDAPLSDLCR
row,SMILES,IC50
1,"COCCN1CCC(Cn2cc(C(=O)O)c(=O)c3cc(Cl)c(N4Cc5cccnc5C4)cc32)CC1 [Example 125, 6-chloro-7-(5,7-dihydro-6H-pyrrolo[3,4-b]pyridin-6-yl)-1-((1-(2-methoxyethyl)piperidin-4-yl)methyl)-4-oxo-1,4-dihydroquinoline-3-carboxylic acid hydrochloride]",≤ 1000 nM
2,"CC(=O)N1CCC(n2cc(C(=O)O)c(=O)c3cc(Cl)c(N4Cc5cccnc5C4)cc32)CC1 [Example 126, 1-(1-acetylpiperidin-4-yl)-6-chloro-7-(5,7-dihydro-6H-pyrrolo[3,4-b]pyridin-6-yl)-4-oxo-1,4-dihydroquinoline-3-carboxylic acid]",≤ 1000 nM
3,"CN(C)C(=O)N1CCC(Cn2cc(C(=O)O)c(=O)c3cc(Cl)c(N4Cc5cccnc5C4)cc32)CC1 [Example 129, 6-chloro-7-(5,7-dihydro-6H-pyrrolo[3,4-b]pyridin-6-yl)-1-((1-(dimethylcarbamoyl)piperidin-4-yl)methyl)-4-oxo-1,4-dihydroquinoline-3-carboxylic acid]",≤ 1000 nM
4,"CN(C)C(=O)N1CCC(n2cc(C(=O)O)c(=O)c3cc(Cl)c(N4Cc5cccnc5C4)cc32)CC1 [Example 130, 6-chloro-7-(5,7-dihydro-6H-pyrrolo[3,4-b]pyridin-6-yl)-1-(1-(dimethylcarbamoyl)piperidin-4-yl)-4-oxo-1,4-dihydroquinoline-3-carboxylic acid]",≤ 1000 nM
5,"COc1cc2c(=O)c(C(=O)O)cn(-c3cnc(NC(=O)OC(C)(C)C)cc3C)c2cc1N1Cc2cccnc2C1 [Example 135, 1-(6-((tert-butoxycarbonyl)amino)-4-methylpyridin-3-yl)-7-(5,7-dihydro-6H-pyrrolo[3,4-b]pyridin-6-yl)-6-methoxy-4-oxo-1,4-dihydroquinoline-3-carboxylic acid]",≤ 1000 nM
6,"Cc1cc(NC(=O)OC(C)(C)C)ncc1-n1cc(C(=O)O)c(=O)c2ccc(N3Cc4cccnc4C3)cc21 [Example 136, 1-(6-((tert-butoxycarbonyl)amino)-4-methylpyridin-3-yl)-7-(5,7-dihydro-6H-pyrrolo[3,4-b]pyridin-6-yl)-4-oxo-1,4-dihydroquinoline-3-carboxylic acid]",≤ 1000 nM
7,"Cc1cc2c(=O)c(C(=O)O)cn(-c3cnc(NC(=O)OC(C)(C)C)cc3C)c2cc1N1Cc2cccnc2C1 [Example 142, 1-(6-((tert-butoxycarbonyl)amino)-4-methylpyridin-3-yl)-7-(5,7-dihydro-6H-pyrrolo[3,4-b]pyridin-6-yl)-6-methyl-4-oxo-1,4-dihydroquinoline-3-carboxylic acid]",≤ 1000 nM
8,"Cc1cc(N)ncc1-n1cc(C(=O)O)c(=O)c2cc(Cl)c(-n3ccc(N)n3)nc21 [Example 147, 7-(3-amino-1H-pyrazol-1-yl)-1-(6-amino-4-methylpyridin-3-yl)-6-chloro-4-oxo-1,4-dihydro-1,8-naphthyridine-3-carboxylic acid]",≤ 1000 nM
9,"CNc1ccn(-c2nc3c(cc2Cl)c(=O)c(C(=O)O)cn3-c2cnc(N)cc2C)n1 [Example 148, 1-(6-amino-4-methylpyridin-3-yl)-6-chloro-7-(3-(methylamino)-1H-pyrazol-1-yl)-4-oxo-1,4-dihydro-1,8-naphthyridine-3-carboxylic acid]",≤ 1000 nM
10,"CCOc1cc2c(=O)c(C(=O)O)cn(-c3cnc(NC(=O)OC(C)(C)C)cc3C)c2cc1N1Cc2cccnc2C1 [Example 149, 1-(6-((tert-butoxycarbonyl)amino)-4-methylpyridin-3-yl)-7-(5,7-dihydro-6H-pyrrolo[3,4-b]pyridin-6-yl)-6-ethoxy-4-oxo-1,4-dihydroquinoline-3-carboxylic acid]",≤ 1000 nM
11,"Cc1cc(NC(=O)OC(C)(C)C)ncc1-n1cc(C(=O)O)c(=O)c2cnc(N3Cc4cccnc4C3)cc21 [Example 150, 1-(6-((tert-butoxycarbonyl)amino)-4-methylpyridin-3-yl)-7-(5,7-dihydro-6H-pyrrolo[3,4-b]pyridin-6-yl)-4-oxo-1,4-dihydro-1,6-naphthyridine-3-carboxylic acid]",≤ 1000 nM
12,"Cc1cc(NC(=O)OC(C)(C)C)ncc1-n1cc(C(=O)O)c(=O)c2ccc(N3Cc4cccnc4C3)c(F)c21 [Example 156, 1-(6-((tert-butoxycarbonyl)amino)-4-methylpyridin-3-yl)-7-(5,7-dihydro-6H-pyrrolo[3,4-b]pyridin-6-yl)-8-fluoro-4-oxo-1,4-dihydroquinoline-3-carboxylic acid]",≤ 1000 nM

# Continued, values first:
row,IC50,SMILES
1,≤ 1000 nM,"Cn1cnc(Cn2cc(C(=O)O)c(=O)c3cc(Cl)c(N4Cc5cccnc5C4)cc32)c1 [Example 131, 6-chloro-7-(5,7-dihydro-6H-pyrrolo[3,4-b]pyridin-6-yl)-1-((1-methyl-1H-imidazol-4-yl)methyl)-4-oxo-1,4-dihydroquinoline-3-carboxylic acid]"
2,≤ 1000 nM,"COCCN(C)c1cc2c(cc1Cl)c(=O)c(C(=O)O)cn2-c1cnc(N)cc1C [Example 132, 1-(6-amino-4-methylpyridin-3-yl)-6-chloro-7-((2-methoxyethyl)(methyl)amino)-4-oxo-1,4-dihydroquinoline-3-carboxylic acid]"
3,≤ 1000 nM,"COCCCN(C)c1cc2c(cc1Cl)c(=O)c(C(=O)O)cn2-c1cnc(N)cc1C [Example 133, 1-(6-amino-4-methylpyridin-3-yl)-6-chloro-7-((3-methoxypropyl)(methyl)amino)-4-oxo-1,4-dihydroquinoline-3-carboxylic acid]"
4,≤ 1000 nM,"CCN(CCOC)c1cc2c(cc1Cl)c(=O)c(C(=O)O)cn2-c1cnc(N)cc1C [Example 138, 1-(6-amino-4-methylpyridin-3-yl)-6-chloro-7-(ethyl(2-methoxyethyl)amino)-4-oxo-1,4-dihydroquinoline-3-carboxylic acid]"
5,≤ 1000 nM,"COc1cc2c(=O)c(C(=O)O)cn(-c3cnc(N)cc3C)c2cc1N1Cc2cccnc2C1 [Example 139, 1-(6-amino-4-methylpyridin-3-yl)-7-(5,7-dihydro-6H-pyrrolo[3,4-b]pyridin-6-yl)-6-methoxy-4-oxo-1,4-dihydroquinoline-3-carboxylic acid]"
6,≤ 1000 nM,"Cc1cc(N)ncc1-n1cc(C(=O)O)c(=O)c2ccc(N3Cc4cccnc4C3)cc21 [Example 140, 1-(6-amino-4-methylpyridin-3-yl)-7-(5,7-dihydro-6H-pyrrolo[3,4-b]pyridin-6-yl)-4-oxo-1,4-dihydroquinoline-3-carboxylic acid]"
7,≤ 1000 nM,Cc1cc2c(=O)c(C(=O)O)cn(-c3cnc(N)cc3C)c2cc1N1Cc2cccnc2C1 [Example 141]
8,≤ 1000 nM,"COCCN(C)c1cc(C)c(-n2cc(C(=O)O)c(=O)c3cc(Cl)c(N4Cc5cccnc5C4)nc32)cn1 [Example 143, 6-chloro-7-(5,7-dihydro-6H-pyrrolo[3,4-b]pyridin-6-yl)-1-(6-((2-methoxyethyl)(methyl)amino)-4-methylpyridin-3-yl)-4-oxo-1,4-dihydro-1,8-naphthyridine-3-carboxylic acid]"
9,≤ 1000 nM,"CCOc1cc2c(=O)c(C(=O)O)cn(-c3cnc(N)cc3C)c2cc1N1Cc2cccnc2C1 [Example 144, 1-(6-amino-4-methylpyridin-3-yl)-7-(5,7-dihydro-6H-pyrrolo[3,4-b]pyridin-6-yl)-6-ethoxy-4-oxo-1,4-dihydroquinoline-3-carboxylic acid]"
10,≤ 1000 nM,"Cc1cc(N(C)C)ncc1-n1cc(C(=O)O)c(=O)c2cc(Cl)c(N3Cc4cccnc4C3)nc21 [Example 146, 6-chloro-7-(5,7-dihydro-6H-pyrrolo[3,4-b]pyridin-6-yl)-1-(6-(dimethylamino)-4-methylpyridin-3-yl)-4-oxo-1,4-dihydro-1,8-naphthyridine-3-carboxylic acid]"
11,≤ 1000 nM,"COCCNc1cc(C)c(-n2cc(C(=O)O)c(=O)c3cc(Cl)c(N4Cc5cccnc5C4)nc32)cn1 [Example 151, 6-chloro-7-(5,7-dihydro-6H-pyrrolo[3,4-b]pyridin-6-yl)-1-(6-((2-methoxyethyl)amino)-4-methylpyridin-3-yl)-4-oxo-1,4-dihydro-1,8-naphthyridine-3-carboxylic acid]"
12,≤ 1000 nM,"Cc1cc(N)ncc1-n1cc(C(=O)O)c(=O)c2cc(Cl)c(-n3ccnc3)nc21 [Example 152, 1-(6-amino-4-methylpyridin-3-yl)-6-chloro-7-(1H-imidazol-1-yl)-4-oxo-1,4-dihydro-1,8-naphthyridine-3-carboxylic acid]"
13,≤ 1000 nM,"Cc1cc(N)ncc1-n1cc(C(=O)O)c(=O)c2cc(Cl)c(-n3cccn3)nc21 [Example 153, 1-(6-amino-4-methylpyridin-3-yl)-6-chloro-4-oxo-7-(1H-pyrazol-1-yl)-1,4-dihydro-1,8-naphthyridine-3-carboxylic acid]"
14,≤ 1000 nM,"Cc1cc(N)ncc1-n1cc(C(=O)O)c(=O)c2ccc(N3Cc4cccnc4C3)c(F)c21 [Example 154, 1-(6-amino-4-methylpyridin-3-yl)-7-5,7-dihydro-6H-pyrrolo[3,4-b]pyridin-6-yl)-8-fluoro-4-oxo-1,4-dihydroquinoline-3-carboxylic acid hydrochloride]"
15,≤ 1000 nM,"Cc1cc(N)ncc1-n1cc(C(=O)O)c(=O)c2ccc(N3Cc4ccccc4C3)c(F)c21 [Example 155, 1-(6-amino-4-methylpyridin-3-yl)-8-fluoro-7-(isoindolin-2-yl)-4-oxo-1,4-dihydroquinoline-3-carboxylic acid]"
16,≤ 1000 nM,"Cc1cc(N)ncc1-n1cc(C(=O)O)c(=O)c2cc(Cl)c(N3Cc4ccccc4C3)nc21 [Example 157, 1-(6-amino-4-methylpyridin-3-yl)-6-chloro-7-(isoindolin-2-yl)-4-oxo-1,4-dihydro-1,8-naphthyridine-3-carboxylic acid]"
17,≤ 1000 nM,"Cc1cc(N)ncc1-n1cc(C(=O)O)c(=O)c2cc(Cl)c(N3Cc4cccc(F)c4C3)nc21 [Example 158, 1-(6-amino-4-methylpyridin-3-yl)-6-chloro-7-(4-fluoroisoindolin-2-yl)-4-oxo-1,4-dihydro-1,8-naphthyridine-3-carboxylic acid]"
